# Assay results: patent publication US20200288710A1, “SUBSTITUTED SULPHONAMIDES FOR CONTROLLING ANIMAL PESTS” (BAYER CROPSCIENCE AKTIENGESELLSCHAFT, priority 2016, published 2020)
# What was measured:
# Format in all cases: in vivo
# Meloidogyne incognita = Meloidogyne incognita test; conditions: 336 h, lettuce, after 14 days, read-out: nematicidal efficacy (formation of galls)
# Summary of the method: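 Gall formation on lettuce roots scored after 14 days: 0% means gall count equals untreated control, 100% means none. Sand vessels held the compound (acetone concentrate diluted in water), southern root-knot nematode egg/larvae suspension and lettuce seeds.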
# Myzus persicae [1] = assay: Myzus persicae spray test (Chinese cabbage leaf discs); conditions: foliar, 120 h, after 5-6 days, read-out: efficacy
# Summary of the method: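 Formulated compound in acetone/dimethylformamide, diluted in water with 1000 ppm emulsifier, was sprayed onto Brassica pekinensis leaf discs carrying mixed-stage Myzus persicae. Percent mortality was read 5-6 days later (0% = no aphids killed, 100% = all killed).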
# Myzus persicae [2] = assay: Myzus persicae oral test; conditions: 120 h, 20 ppm, oral uptake, after 5 days, read-out: efficacy
# Summary of the method: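 Aphids of mixed ages imbibe, through parafilm, compound solution (acetone stock, water-diluted) combined with sugar-supplemented IPL41 medium to 200 μl. Efficacy read at day 5 as percent killed, 0% meaning no deaths.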
compound,measurement,setting,value
Cn1cc(C(=O)NS(=O)(=O)c2cccc(F)c2F)nc1-c1c(F)cccc1F [Example 320],pest or weed control at 20 ppm,Meloidogyne incognita,90%
same,pest or weed control at 500 g/ha,Myzus persicae [1],100%
same,pest or weed control at 20 ppm,Myzus persicae [2],100%
CCSc1cccc(Cl)c1S(=O)(=O)NC(=O)c1cn(C)c(-c2c(F)cccc2F)n1 [Example 179],pest or weed control at 20 ppm,Meloidogyne incognita,90%
same,pest or weed control at 500 g/ha,Myzus persicae [1],90%
same,pest or weed control at 20 ppm,Myzus persicae [2],100%
Cc1c(C(=O)NS(C)(=O)=O)nc(-c2ccccc2Cl)n1C [Example 71],pest or weed control at 20 ppm,Meloidogyne incognita,90%
same,pest or weed control at 500 g/ha,Myzus persicae [1],90%
same,pest or weed control at 20 ppm,Myzus persicae [2],100%
COc1cc(C(=O)NS(=O)(=O)c2ccccc2Cl)nn1-c1ccccc1Cl [Example 275],pest or weed control at 20 ppm,Meloidogyne incognita,100%
same,pest or weed control at 500 g/ha,Myzus persicae [1],90%
same,pest or weed control at 20 ppm,Myzus persicae [2],100%
Cc1cc(S(=O)(=O)NC(=O)c2cn(C)c(-c3c(F)cccc3F)n2)c(C)s1 [Example 182],pest or weed control at 20 ppm,Meloidogyne incognita,100%
same,pest or weed control at 500 g/ha,Myzus persicae [1],90%
same,pest or weed control at 20 ppm,Myzus persicae [2],100%
Cn1cc(C(=O)NS(=O)(=O)c2ccccc2OC(F)(F)F)nc1-c1c(F)cccc1F [Example 118],pest or weed control at 20 ppm,Meloidogyne incognita,90%
same,pest or weed control at 500 g/ha,Myzus persicae [1],100%
same,pest or weed control at 20 ppm,Myzus persicae [2],100%
CCc1ccccc1S(=O)(=O)NC(=O)c1cn(C)c(-c2cccc(Cl)c2Cl)n1 [Example 553],pest or weed control at 20 ppm,Meloidogyne incognita,90%
same,pest or weed control at 500 g/ha,Myzus persicae [1],100%
same,pest or weed control at 20 ppm,Myzus persicae [2],100%
Cc1cc(C(=O)NS(=O)(=O)c2ccccc2Cl)nn1-c1ncccc1Br [Example 295],pest or weed control at 20 ppm,Meloidogyne incognita,90%
same,pest or weed control at 500 g/ha,Myzus persicae [1],100%
same,pest or weed control at 20 ppm,Myzus persicae [2],100%
Cn1cc(C(=O)NS(=O)(=O)c2cccc(Cl)c2)nc1-c1c(F)cccc1Cl [Example 113],pest or weed control at 20 ppm,Meloidogyne incognita,100%
same,pest or weed control at 500 g/ha,Myzus persicae [1],90%
same,pest or weed control at 20 ppm,Myzus persicae [2],100%
Cn1cc(C(=O)NS(=O)(=O)c2ccccc2Cl)nc1-c1cccc(F)c1F [Example 512],pest or weed control at 20 ppm,Meloidogyne incognita,90%
same,pest or weed control at 500 g/ha,Myzus persicae [1],90%
same,pest or weed control at 20 ppm,Myzus persicae [2],100%
Cn1cc(C(=O)NS(=O)(=O)c2c(Cl)cccc2Cl)nc1-c1ccccc1F [Example 96],pest or weed control at 20 ppm,Meloidogyne incognita,100%
same,pest or weed control at 500 g/ha,Myzus persicae [1],100%
same,pest or weed control at 20 ppm,Myzus persicae [2],100%
Cc1cc(C(=O)NS(=O)(=O)c2ccccc2Cl)nn1-c1ncccc1Cl [Example 273],pest or weed control at 20 ppm,Meloidogyne incognita,90%
same,pest or weed control at 500 g/ha,Myzus persicae [1],100%
same,pest or weed control at 20 ppm,Myzus persicae [2],100%
CCc1ccccc1-c1nc(C(=O)NS(=O)(=O)c2ccccc2C)cn1C [Example 497],pest or weed control at 20 ppm,Meloidogyne incognita,90%
same,pest or weed control at 500 g/ha,Myzus persicae [1],90%
same,pest or weed control at 20 ppm,Myzus persicae [2],100%
COc1cccc(OC)c1S(=O)(=O)NC(=O)c1cn(C)c(-c2c(F)cccc2F)n1 [Example 378],pest or weed control at 20 ppm,Meloidogyne incognita,90%
same,pest or weed control at 100 g/ha,Myzus persicae [1],90%
same,pest or weed control at 20 ppm,Myzus persicae [2],100%
Cn1cc(C(=O)NS(=O)(=O)c2ccccc2Br)nc1-c1cccc(Cl)c1Cl [Example 555],pest or weed control at 20 ppm,Meloidogyne incognita,90%
same,pest or weed control at 500 g/ha,Myzus persicae [1],90%
same,pest or weed control at 20 ppm,Myzus persicae [2],100%
CCc1ccccc1S(=O)(=O)NC(=O)c1cn(C)c(-c2cccc3ccccc23)n1 [Example 503],pest or weed control at 20 ppm,Meloidogyne incognita,90%
same,pest or weed control at 500 g/ha,Myzus persicae [1],90%
same,pest or weed control at 20 ppm,Myzus persicae [2],100%
Cn1cc(C(=O)NS(=O)(=O)c2c(Cl)cccc2Br)nc1-c1ncccc1F [Example 595],pest or weed control at 20 ppm,Meloidogyne incognita,90%
same,pest or weed control at 500 g/ha,Myzus persicae [1],90%
same,pest or weed control at 20 ppm,Myzus persicae [2],100%
COc1ccccc1S(=O)(=O)NC(=O)c1cn(C)c(-c2cccc(F)c2F)n1 [Example 528],pest or weed control at 20 ppm,Meloidogyne incognita,90%
same,pest or weed control at 500 g/ha,Myzus persicae [1],100%
same,pest or weed control at 20 ppm,Myzus persicae [2],100%
Cn1cc(C(=O)NS(=O)(=O)c2cc(C(F)(F)F)ccc2Cl)nc1-c1c(F)cccc1F [Example 453],pest or weed control at 20 ppm,Meloidogyne incognita,90%
same,pest or weed control at 500 g/ha,Myzus persicae [1],90%
same,pest or weed control at 20 ppm,Myzus persicae [2],100%
Cc1cc(C(=O)NS(=O)(=O)c2ccccc2Cl)nn1-c1ccccc1Cl [Example 271],pest or weed control at 20 ppm,Meloidogyne incognita,100%
same,pest or weed control at 500 g/ha,Myzus persicae [1],100%
same,pest or weed control at 20 ppm,Myzus persicae [2],100%
COc1cc(C(=O)NS(=O)(=O)c2ccccc2Br)nn1-c1ccccc1Cl [Example 277],pest or weed control at 20 ppm,Meloidogyne incognita,90%
same,pest or weed control at 500 g/ha,Myzus persicae [1],100%
same,pest or weed control at 20 ppm,Myzus persicae [2],100%
Cc1[nH]c(-c2ccc(Cl)cc2)nc1C(=O)NS(=O)(=O)C(C)C [Example 235],pest or weed control at 20 ppm,Meloidogyne incognita,90%
same,pest or weed control at 500 g/ha,Myzus persicae [1],100%
same,pest or weed control at 20 ppm,Myzus persicae [2],100%
CCc1ccc(C)c(S(=O)(=O)NC(=O)c2cn(C)c(-c3c(F)cccc3F)n2)c1 [Example 395],pest or weed control at 20 ppm,Meloidogyne incognita,90%
same,pest or weed control at 500 g/ha,Myzus persicae [1],100%
same,pest or weed control at 20 ppm,Myzus persicae [2],90%
COc1ccc(Cl)c(S(=O)(=O)NC(=O)c2cn(C)c(-c3ncccc3F)n2)c1 [Example 514],pest or weed control at 20 ppm,Meloidogyne incognita,90%
same,pest or weed control at 500 g/ha,Myzus persicae [1],100%
same,pest or weed control at 20 ppm,Myzus persicae [2],100%
Cn1cc(C(=O)NS(=O)(=O)c2c(Cl)cccc2C(F)(F)F)nc1-c1ncccc1Cl [Example 600],pest or weed control at 20 ppm,Meloidogyne incognita,100%
same,pest or weed control at 500 g/ha,Myzus persicae [1],100%
same,pest or weed control at 20 ppm,Myzus persicae [2],100%
CCn1cc(C(=O)NS(=O)(=O)c2c(Cl)cccc2Cl)nc1-c1ccccc1Cl [Example 69],pest or weed control at 20 ppm,Meloidogyne incognita,90%
same,pest or weed control at 500 g/ha,Myzus persicae [1],90%
same,pest or weed control at 20 ppm,Myzus persicae [2],100%
Cn1cc(C(=O)NS(=O)(=O)c2ccccc2Cl)nc1-c1cccc(Cl)c1Cl [Example 513],pest or weed control at 20 ppm,Meloidogyne incognita,100%
same,pest or weed control at 500 g/ha,Myzus persicae [1],100%
same,pest or weed control at 20 ppm,Myzus persicae [2],100%
CCc1[nH]c(-c2cccc(C(C)C)c2)nc1C(=O)NS(=O)(=O)c1ccccc1Cl [Example 613],pest or weed control at 20 ppm,Meloidogyne incognita,90%
same,pest or weed control at 100 g/ha,Myzus persicae [1],90%
same,pest or weed control at 20 ppm,Myzus persicae [2],100%
Cn1cc(C(=O)NS(=O)(=O)c2cscc2Br)nc1-c1c(F)cccc1F [Example 183],pest or weed control at 20 ppm,Meloidogyne incognita,100%
same,pest or weed control at 500 g/ha,Myzus persicae [1],100%
same,pest or weed control at 20 ppm,Myzus persicae [2],100%
COc1ccc(Br)cc1S(=O)(=O)NC(=O)c1cn(C)c(-c2c(F)cccc2Cl)n1 [Example 156],pest or weed control at 20 ppm,Meloidogyne incognita,90%
same,pest or weed control at 500 g/ha,Myzus persicae [1],100%
same,pest or weed control at 20 ppm,Myzus persicae [2],100%
CCCc1ccccc1S(=O)(=O)NC(=O)c1cn(C)c(-c2c(F)cccc2F)n1 [Example 403],pest or weed control at 20 ppm,Meloidogyne incognita,90%
same,pest or weed control at 500 g/ha,Myzus persicae [1],100%
same,pest or weed control at 20 ppm,Myzus persicae [2],100%
Cc1noc(C)c1S(=O)(=O)NC(=O)c1cn(C)c(-c2c(F)cccc2F)n1 [Example 358],pest or weed control at 20 ppm,Meloidogyne incognita,90%
same,pest or weed control at 500 g/ha,Myzus persicae [1],100%
same,pest or weed control at 20 ppm,Myzus persicae [2],100%
CCSc1ccccc1S(=O)(=O)NC(=O)c1cn(C)c(-c2c(F)cccc2F)n1 [Example 169],pest or weed control at 20 ppm,Meloidogyne incognita,90%
same,pest or weed control at 500 g/ha,Myzus persicae [1],100%
same,pest or weed control at 20 ppm,Myzus persicae [2],100%
Cn1cc(C(=O)NS(=O)(=O)c2sccc2Br)nc1-c1c(F)cccc1F [Example 354],pest or weed control at 20 ppm,Meloidogyne incognita,90%
same,pest or weed control at 500 g/ha,Myzus persicae [1],100%
same,pest or weed control at 20 ppm,Myzus persicae [2],100%
Cc1ccsc1S(=O)(=O)NC(=O)c1cn(C)c(-c2c(F)cccc2F)n1 [Example 184],pest or weed control at 20 ppm,Meloidogyne incognita,100%
same,pest or weed control at 500 g/ha,Myzus persicae [1],90%
same,pest or weed control at 20 ppm,Myzus persicae [2],100%
COc1ccccc1S(=O)(=O)NC(=O)c1cn(C)c(-c2cccc(Cl)c2Cl)n1 [Example 567],pest or weed control at 20 ppm,Meloidogyne incognita,90%
same,pest or weed control at 500 g/ha,Myzus persicae [1],100%
same,pest or weed control at 20 ppm,Myzus persicae [2],100%
Cn1cc(C(=O)NS(=O)(=O)c2c(Cl)cccc2Cl)nc1-c1ncccc1F [Example 594],pest or weed control at 20 ppm,Meloidogyne incognita,90%
same,pest or weed control at 500 g/ha,Myzus persicae [1],90%
same,pest or weed control at 20 ppm,Myzus persicae [2],100%
Cn1cc(C(=O)NS(=O)(=O)c2cc(Cl)cnc2Cl)nc1-c1c(F)cccc1F [Example 343],pest or weed control at 20 ppm,Meloidogyne incognita,90%
same,pest or weed control at 500 g/ha,Myzus persicae [1],100%
same,pest or weed control at 20 ppm,Myzus persicae [2],90%
Cn1cc(C(=O)NS(=O)(=O)c2ccc(Br)cc2F)nc1-c1c(F)cccc1F [Example 437],pest or weed control at 20 ppm,Meloidogyne incognita,90%
same,pest or weed control at 500 g/ha,Myzus persicae [1],100%
same,pest or weed control at 20 ppm,Myzus persicae [2],100%
COc1ccc(Cl)cc1S(=O)(=O)NC(=O)c1cn(C)c(-c2c(F)cccc2F)n1 [Example 393],pest or weed control at 20 ppm,Meloidogyne incognita,90%
same,pest or weed control at 500 g/ha,Myzus persicae [1],100%
same,pest or weed control at 20 ppm,Myzus persicae [2],100%
Cn1cc(C(=O)NS(=O)(=O)c2cccc3c2OC(F)(F)C(F)(F)O3)nc1-c1c(F)cccc1F [Example 312],pest or weed control at 20 ppm,Meloidogyne incognita,90%
same,pest or weed control at 500 g/ha,Myzus persicae [1],90%
same,pest or weed control at 20 ppm,Myzus persicae [2],100%
CSc1cccc(Cl)c1S(=O)(=O)NC(=O)c1cn(C)c(-c2ccccc2Cl)n1 [Example 422],pest or weed control at 20 ppm,Meloidogyne incognita,90%
same,pest or weed control at 500 g/ha,Myzus persicae [1],90%
same,pest or weed control at 20 ppm,Myzus persicae [2],100%
Cc1ccccc1S(=O)(=O)NC(=O)c1cn(C)c(-c2cc(F)ccc2F)n1 [Example 520],pest or weed control at 20 ppm,Meloidogyne incognita,100%
same,pest or weed control at 500 g/ha,Myzus persicae [1],90%
same,pest or weed control at 20 ppm,Myzus persicae [2],100%
COc1ccc(F)cc1S(=O)(=O)NC(=O)c1cn(C)c(-c2ccccc2Cl)n1 [Example 427],pest or weed control at 20 ppm,Meloidogyne incognita,90%
same,pest or weed control at 500 g/ha,Myzus persicae [1],100%
same,pest or weed control at 20 ppm,Myzus persicae [2],100%
Cc1ccsc1S(=O)(=O)NC(=O)c1cn(C)c(-c2cccc(Cl)c2Cl)n1 [Example 560],pest or weed control at 20 ppm,Meloidogyne incognita,100%
same,pest or weed control at 500 g/ha,Myzus persicae [1],100%
same,pest or weed control at 20 ppm,Myzus persicae [2],100%
Cn1cc(C(=O)NS(=O)(=O)c2ccc(Cl)cc2)nc1-c1ccccc1F [Example 51],pest or weed control at 20 ppm,Meloidogyne incognita,100%
same,pest or weed control at 500 g/ha,Myzus persicae [1],90%
same,pest or weed control at 20 ppm,Myzus persicae [2],90%
